The test system of series [1] is CI-M6PR. Briefly: Binding assay to biotinylated CI-M6PR (displacement from adsorbed pentamannose 6-phosphate). To be noted: for binding affinity to CI-M6PR (in words) / stability of affinity in buffer solution: 20° C. Here is the method:
The binding assays of the M6 Pa were performed using biotinylated CI-M6PR. Briefly, the CI-M6PR, purified on a phosphomannan-sepharose affinity column was biotinylated by N-hydroxysuccinimide biotin. The binding of the biotinylated CI-M6PR(CI-M6PRb) to pentamannose 6-phosphate (PMP) previously adsorbed on a microtitre plate was displaced by increasing concentrations of M6 Pa. The bound CI-M6PRb was then determined using the streptavidin/peroxidase couple and OPD substrate by optical density measurements. In control experiments the method was standardized by determining of the maximal concentration of the PMP adsorbed to the microtitre plate and the CI-M6PRb concentration required to saturate the adsorbed PMP [Jeanjean A et al., Bioorg Med Chem 14: 3575-82, 2006].
The binding assays of the cathD-AMFA-1 were performed using biotinylated CI-M6PR to the same protocol used for AMFA-1 binding assay, as detailed in section 1.2.

The format of series [2] is in vitro ADME. Here is the method:
(§1) Previous results have shown that a complex cathepsin D/anti-cathepsin D antibody was specifically internalised by CI-M6PR in normal human fibroblasts [Laurent-Matha V et al., J Cell Sci. 111: 2539-49, 1998]. The complex was here detected by immunofluorescence staining.
The binding affinity of AMFA-1, AMFA-2, AMFA-3 and AMFA-5 to CI-M6PR was determined at 20° C. (A) or in the presence of 75% human serum at 37° C. […] Methods are identical to 1.8 section.

The next series can be described thus: FIG.15. Here is the method: Table printed on a drawing sheet, FIG.15
(A) and in human serum (B).
First reader's note: Stability (%) matches the CI-M6PR binding affinity remaining at the last time point of incubation in human serum in the plot printed below the table.

Series [3] concerns human normal fibroblast IMR-90 cell line. The series can be described thus: Cytotoxicity on human normal fibroblast cell line. Format: cell-based. The note with it: FIG. 14C.
The target of series [4] is T1, CI-M6PR (Homo sapiens, UniProt P11717).
T1 construct: endogenous in cells; host or cells: normal human fibroblasts
T1 sequence (P11717 41-2491): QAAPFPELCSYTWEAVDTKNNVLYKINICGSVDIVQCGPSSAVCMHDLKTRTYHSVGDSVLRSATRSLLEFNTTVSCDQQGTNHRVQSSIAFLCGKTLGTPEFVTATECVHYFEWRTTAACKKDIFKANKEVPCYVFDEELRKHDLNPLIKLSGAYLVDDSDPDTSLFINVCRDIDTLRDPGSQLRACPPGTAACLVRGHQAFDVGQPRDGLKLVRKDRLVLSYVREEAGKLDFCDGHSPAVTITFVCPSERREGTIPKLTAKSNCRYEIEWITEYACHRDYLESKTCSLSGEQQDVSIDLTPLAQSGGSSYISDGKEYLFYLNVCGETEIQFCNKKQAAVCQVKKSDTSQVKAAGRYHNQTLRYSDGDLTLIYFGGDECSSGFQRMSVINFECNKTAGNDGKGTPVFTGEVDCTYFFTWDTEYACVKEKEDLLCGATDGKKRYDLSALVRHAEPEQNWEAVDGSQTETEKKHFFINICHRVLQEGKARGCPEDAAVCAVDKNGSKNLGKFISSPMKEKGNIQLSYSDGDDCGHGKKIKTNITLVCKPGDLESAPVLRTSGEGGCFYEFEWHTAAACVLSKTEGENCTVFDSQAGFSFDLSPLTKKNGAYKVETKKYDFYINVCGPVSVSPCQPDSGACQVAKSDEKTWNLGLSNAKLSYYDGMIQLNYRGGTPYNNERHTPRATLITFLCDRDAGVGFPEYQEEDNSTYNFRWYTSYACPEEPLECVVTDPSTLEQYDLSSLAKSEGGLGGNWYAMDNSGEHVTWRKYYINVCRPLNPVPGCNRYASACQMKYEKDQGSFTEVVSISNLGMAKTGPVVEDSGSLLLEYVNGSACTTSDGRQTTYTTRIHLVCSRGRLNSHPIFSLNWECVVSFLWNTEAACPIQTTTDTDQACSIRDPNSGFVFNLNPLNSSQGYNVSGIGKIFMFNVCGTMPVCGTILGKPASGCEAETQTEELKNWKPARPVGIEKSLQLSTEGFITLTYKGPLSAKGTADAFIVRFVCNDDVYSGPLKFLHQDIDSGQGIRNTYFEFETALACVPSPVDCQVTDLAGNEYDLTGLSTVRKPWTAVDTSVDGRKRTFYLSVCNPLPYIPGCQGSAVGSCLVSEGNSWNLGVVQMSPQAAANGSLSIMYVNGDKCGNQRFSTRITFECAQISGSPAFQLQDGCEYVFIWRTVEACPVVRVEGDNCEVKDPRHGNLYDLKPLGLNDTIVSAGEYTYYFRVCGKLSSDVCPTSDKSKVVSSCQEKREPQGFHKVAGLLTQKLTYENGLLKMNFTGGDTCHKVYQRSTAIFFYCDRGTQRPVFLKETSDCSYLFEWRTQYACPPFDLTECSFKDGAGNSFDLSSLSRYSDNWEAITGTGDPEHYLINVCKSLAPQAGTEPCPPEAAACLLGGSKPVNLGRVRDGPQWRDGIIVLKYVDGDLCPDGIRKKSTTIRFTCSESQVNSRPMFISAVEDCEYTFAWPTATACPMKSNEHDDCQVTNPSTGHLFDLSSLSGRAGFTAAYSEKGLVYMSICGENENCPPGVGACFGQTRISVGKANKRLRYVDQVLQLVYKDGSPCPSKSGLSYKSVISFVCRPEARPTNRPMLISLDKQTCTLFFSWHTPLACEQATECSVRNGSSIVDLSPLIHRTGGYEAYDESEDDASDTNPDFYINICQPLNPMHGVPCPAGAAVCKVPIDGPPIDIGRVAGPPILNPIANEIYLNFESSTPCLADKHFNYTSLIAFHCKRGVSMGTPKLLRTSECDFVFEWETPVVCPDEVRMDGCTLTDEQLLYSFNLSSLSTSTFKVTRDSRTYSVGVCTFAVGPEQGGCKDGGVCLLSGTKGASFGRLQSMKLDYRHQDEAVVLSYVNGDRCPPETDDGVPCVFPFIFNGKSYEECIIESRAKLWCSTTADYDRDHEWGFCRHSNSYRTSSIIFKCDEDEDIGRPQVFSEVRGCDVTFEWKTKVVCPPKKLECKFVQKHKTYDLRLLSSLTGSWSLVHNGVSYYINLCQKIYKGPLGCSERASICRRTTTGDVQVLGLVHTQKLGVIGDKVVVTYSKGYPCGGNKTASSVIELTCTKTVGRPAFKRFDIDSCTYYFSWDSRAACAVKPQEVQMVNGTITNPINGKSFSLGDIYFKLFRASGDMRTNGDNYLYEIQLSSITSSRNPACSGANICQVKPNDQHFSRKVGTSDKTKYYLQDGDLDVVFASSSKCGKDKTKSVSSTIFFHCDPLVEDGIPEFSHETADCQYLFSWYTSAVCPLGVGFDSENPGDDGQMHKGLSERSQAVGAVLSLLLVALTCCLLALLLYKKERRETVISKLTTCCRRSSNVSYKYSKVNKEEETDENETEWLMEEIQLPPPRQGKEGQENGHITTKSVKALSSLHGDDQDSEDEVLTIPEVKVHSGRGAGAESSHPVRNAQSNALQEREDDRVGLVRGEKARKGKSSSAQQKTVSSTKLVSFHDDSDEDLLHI
Format: cell-based. To be noted: pre-incubation with 10 mM. Here is the method: (§2) As observed at light microscopy, 100 ng/mL neoIDUA was already internalised by MPSI fibroblasts from Scheie patient after 3 h incubation (FIG. 17 B-E). […] Glyceraldehyde 3-phosphate dehydrogenase (GAPDH) immunodetection was used as an internal control for total protein loading.

The next series has as its system MCF7. Briefly: Cytotoxicity on breast cancer cell line MCF7. Format: cell-based, human. To be noted: data not shown.
In a further series the test system is MDA-MB-231. Briefly: Cytotoxicity on breast cancer cell line MDA-MB-231. Format: cell-based, human. The note with it: data not shown.
In series [5] the target is T1, CI-M6PR. Briefly: Endocytosis of cathepsin D/anti-cathepsin D antibody complex via CI-M6PR in normal human fibroblasts (immunofluorescence). Format: cell-based. The note with it: cells pre-incubated with 10 mM; control cells 80%.
Text: as §1

The test system of series [6] is MPSI fibroblasts from Scheie patient. Briefly: neoIDUA cell internalisation in MPSI fibroblasts. Format: cell-based, human. As to the method: as §2
The next series concerns Homozygous IDUA −/− mice. The series can be described thus: Therapeutic efficacy in mucopolysaccharidosis I (MPSI) mouse model, urinary GAG. It counts as in vivo. To be noted: 0.16 mg/kg body weight/week intravenously, 6 weeks; Mean ± SD. As to the method: Homozygous IDUA −/− mice (6-8 week-old) were treated intravenously with vehicle alone (control) or with 0.16 mg neoIDUA/kg body weight/week for 6 weeks. The secreted GAG were assayed in urine after 6 injections and normalized to urine creatinine concentrations using methods previously described [Barbosa et al., Glycobiology Adv. Access 13: 647-53, 2003].

For series [7], the system named is Hurler patient fibroblasts. The series can be described thus: Secreted GAG in culture medium of Hurler patient fibroblasts (Blyscan kit). It counts as cell-based, human.
A further series concerns Hurler fibroblasts. Briefly: Viability of Hurler fibroblasts (MTT assay). It counts as cell-based, human. The note with it: 100-500 ng/mL. As to the method:
Cell viability was evaluated by MTT assay [Maynadier et al. FASEB J, 22: 671-81, 2008].
Background: Tetrazolium dyes change colour on reduction, which living cells bring about.

Where “and” joins values, the source holds several entries; their conditions need not be identical. Identical values can stand only once. Entries after “also recorded” stand apart in the source; their conditions may differ. Like-named read-outs stand apart in the source and are kept apart here.

For `NOCCO[C@H]1O[C@H](CCP(=O)(O)O)[C@@H](O)[C@H](O)[C@@H]1O.[Na].[Na]` [AMFA-3, Disodium salt of 2-(aminoxy)ethyl 6-deoxy-6-dihydroxyphosphinylmethylene-α-D-mannopyranoside], in the series with CI-M6PR [1], the “binding affinity to CI-M6PR (in words)” value is “high binding affinity”. Also, the “stability in human serum (in words)” value in series [2] is listed as “stable”. Besides, the “Stability (%)” value in the series “FIG.15” turned out to be 91%.
Regarding `COC(=O)CCCCCO[C@H]1O[C@H](CC(C(=O)[O-])C(=O)[O-])[C@@H](O)[C@H](O)[C@@H]1O.[Na+].[Na+]` [AMFA-5, [5-methoxycarbonylpentyl 6,7-dideoxy-7-(carboxy)-α-D-manno-octopyranoside]uronate disodium salt], the “binding affinity to CI-M6PR (in words)” value with CI-M6PR [1] is “high binding affinity”. The “stability in human serum (in words)” value in series [2] is “stable”. In “FIG.15”, the “Stability (%)” value worked out at 90%.
“natural cathepsin D: human lysosomal enzyme, high affinity ligand for CI-M6PR with bisphosphorylated chains”: the equilibrium dissociation constant (Kd) – broadly, the equilibrium constant for the complex coming apart – on CI-M6PR [1] (FIG. 16A, read-out: affinity for CI-M6PR (Kd)) turned out to be 15 nM.
In the case of “5-hydrazinocarbonylpentyl 6-phosphate-α-D-mannopyranoside disodium salt [M6P-hexanehydrazide]”, in the series “FIG.15”, the “Stability (%)” value worked out at 16%.
Same read-out and setting: the figure for `O=C[C@@H](O)[C@@H](O)[C@H](O)[C@H](O)COP(=O)(O)O` [M6P, mannose 6-phosphate] is 0%.
As to `NNC(=O)CCCCCO[C@H]1O[C@H](CCP(=O)(O)O)[C@@H](O)[C@H](O)[C@@H]1O.[Na].[Na]` [AMFA-1, 5-hydrazinocarbonylpentyl 6-deoxy-6-dihydroxyphosphinylmethyl-α-D-mannopyranoside disodium salt], in the series with CI-M6PR [1], the “binding affinity to CI-M6PR (in words)” value is listed as “high binding affinity”. Besides, the “binding affinity for CI-M6PR (comparison in words)” value in the series with CI-M6PR [1] (FIG. 1, FIG. 14) is reported as “identical to those of phosphonate 1 alone”. In series [2] (75% (v/v) human serum, disodium salt), the “stability in human serum (in words)” value is “identical to those of phosphonate 1 alone; also recorded: stable”. For the same molecule, in series [3], the “toxicity in human fibroblasts” value is on record as “absence of toxicity”. For the same molecule, at CI-M6PR [4], the “effect on uptake of neoIDUA by the cells” value was “totally prevented”. Besides, the “toxicity in human breast cancer cell line MCF7” value in the series with MCF7 is “no toxicity”. For the same molecule, the “toxicity in human breast cancer cell line MDA” value in the series on MDA-MB-231 is “no toxicity”.
Consider “5-hydrazinocarbonylpentyl 6-phosphate-α-D-mannopyranoside disodium salt [M6P-hexanehydrazide, reference compound]”, for which the “stability of affinity in buffer solution” value in the series on CI-M6PR [1] is reported as “stable affinity”. The “decrease of affinity in human serum” value in [2] (75% human serum at 37° C., after 7-8 h) is about 50%; in [2] (75% human serum at 37° C., after 16 h), 84%.
As for `NNC(=O)CCn1cc(CO[C@H]2O[C@H](CCP(=O)(O)O)[C@@H](O)[C@H](O)[C@@H]2O)nn1.[Na].[Na]` [AMFA-2, Disodium salt of (Hydrazinocarbonylethyl)-1H-1,2,3-triazol-4-yl-methyl 6-Deoxy-6-dihydroxyphosphinylmethylene-α-D-mannopyranoside], in the series on CI-M6PR [1], the “binding affinity to CI-M6PR (in words)” value was “high binding affinity”. Also, in series [2], the “stability in human serum (in words)” value is listed as “stable”. The “Stability (%)” value in the series “FIG.15” is recorded as 90%.
Take `O=C[C@@H](O)[C@@H](O)[C@H](O)[C@H](O)COP(=O)(O)O` [M6P, mannose 6-phosphate, reference compound]: in the series with CI-M6PR [1], the “stability of affinity in buffer solution” value is reported as “stable affinity”. Moreover, the “decrease of affinity in human serum” value in [2] (human) is about 50%; in [2] (human, 16 h), 100%. Besides, the “effect on uptake of neoIDUA by the cells” value on CI-M6PR [4] is reported as “strongly decreased”. Moreover, on CI-M6PR [5], the “cells that internalized the cathepsin D/anti-cathepsin D antibody complex” value was 30%.

B1: IDUA-AMFA-1: recombinant α-L-iduronidase from baculovirus/Sf9 cells coupled to AMFA-1 (conjugate, UniProt P35475 28-653, looked up)
Alpha-L-iduronidase: APHLVHVDAARALWPLRRFWRSTGFCPPLPHSQADQYVLSWDQQLNLAYVGAVPHRGIKQVRTHWLLELVTTRGSTGRGLSYNFTHLDGYLDLLRENQLLPGFELMGSASGHFTDFEDKQQVFEWKDLVSSLARRYIGRYGLAHVSKWNFETWNEPDHHDFDNVSMTMQGFLNYYDACSEGLRAASPALRLGGPGDSFHTPPRSPLSWGLLRHCHDGTNFFTGEAGVRLDYISLHRKGARSSISILEQEKVVAQQIRQLFPKFADTPIYNDEADPLVGWSLPQPWRADVTYAAMVVKVIAQHQNLLLANTTSAFPYALLSNDNAFLSYHPHPFAQRTLTARFQVNNTRPPHVQLLRKPVLTAMGLLALLDEEQLWAEVSQAGTVLDSNHTVGVLASAHRPQGPADAWRAAVLIYASDDTRAHPNRSVAVTLRLRGVPPGPGLVYVTRYLDNGLCSPDGEWRRLGRPVFPTAEQFRRMRAAEDPVAAAPRPLPAGGRLTLRPALRLPSLLLVHVCARPEKPPGQVTRLRALPLTQGQLVLVWSDEHVGSKCLWTYEIQFSQDGKAYTPVSRKPSTFNLFVFSPDTGAVSGSYRVRALDYWARPGPFSDPVPYLEVPVPRGPPSPGNP
modifications: coupled to AMFA-1
For the molecule B1, the “internalisation by MPSI fibroblasts (light microscopy)” value in [6] (100 ng/mL, 3 h incubation, Scheie patient) is listed as “internalised”. Besides, in series [6] (after 24 h incubation), the “internalization in cell extracts (Western Blot)” value is listed as “demonstrated”. The “Secreted GAG concentrations/creatinine concentrations in urine” value in the series on Homozygous IDUA −/− mice is 59.8 % control and 59.8 ± 9.0 % control. The “Secreted GAG concentrations in culture medium” value amounted to 0.009 µg/mL in series [7] (24 h treatment, control 0.018); 0.016 µg/mL in series [7] (48 h treatment, control 0.022); 0.018 µg/mL in series [7] (72 h treatment, control 0.032). In addition, the “reduction of GAG secretion” value in series [7] (from 24 to 72 h) is reported as “up to 50%”. Moreover, the “toxicity on Hurler fibroblasts” value in the series with Hurler fibroblasts is “not toxic”. The cell viability result in the series on Hurler fibroblasts (72 h) is recorded as “slightly potentiate cell viability”.

The values above are taken from patent publication US8962573B2 (INSERM (Institut National de la Sante et de la Recherche …, priority 2009, dated 2015).
